Test results: patent US12697328B2, “Methods for treating metastasis with cathepsin C inhibitors” (Shanghai Institute of Nutrition and Health, Chinese Academy …, priority 2020, dated 2026)

What was measured:
murine neutrophils [1] = test: In vitro NET analysis of neutrophils cultured in 4T07 or 4T1 conditioned media; assay type: cell-based; conditions: Sivelestat 10 μM or DNase I 1 μg/ml; FIG. 8F
Protocol: To assess NET formation, neutrophils (2.5×10^5 cells) were seeded on coverslips coated with poly-L-lysine (P4707, Sigma) in 24-well plates for 30 min before adding 10% cancer cell CM, Sivelestat (10 μM), PMA (20 nM, Sigma), Cl-amidine (100 μM, Selleck) and/or DNase I (1 μg/ml). After 12 to 16 h at 37° C., neutrophils were fixed with 4% paraformaldehyde (PFA) for 10 min at room temperature, washed twice with PBS and permeabilized in 0.1% Triton X-100 for 5 min. […] NET area quantification was performed using the DANA method (Rebernick et al., “DNA area and NETosis analysis (DANA): a high-throughput method to quantify neutrophil extracellular traps in fluorescent microscope images,” Biol. Proced. Online 20:7 (2018)). Briefly, the areas of structures depicting NET morphology and positive for Ci-H3 or total H3 were counted as NETotic cell areas, and the NET area percentages were analyzed as NETotic cell areas divided by total DNA areas. The percentages of NETotic cells were analyzed as previously described ([…]). […] The percentage of NETotic cells was counted as the numbers of NETotic cells divided by the total cell numbers. […]

murine neutrophils [2] = test: Two-chamber migration of neutrophils recruited by media of neutrophils pre-treated with 4T07 CM; assay type: cell-based; conditions: media of neutrophils pre-treated with CM of 4T07 with CTSC overexpressed; FIG. 7E
Protocol: The procedure of two-chamber migration assays was previously described (Zhuang et al., “Differential effects on lung and bone metastasis of breast cancer by Wnt signalling inhibitor DKK1,” Nat. Cell Biol. 19:1274-1285 (2017)). Briefly, 5×10^5 freshly isolated neutrophils in RPMI 1640 were added to the upper chamber (363096, BD), and a 1:1 mixture of RPMI 1640 and cancer cell CM, or medium from neutrophils cultured in cancer cell CM, was added to the lower chamber as the chemoattractant. The migrated cells in the lower chamber were counted after 3 h.

neutrophils = test: Neutrophil recruitment by cancer cell conditioned medium (Transwell chambers); assay type: cell-based, mice; conditions: CM of liver-metastatic breast cancer and bone-metastatic lung cancer cells, with or without brensocatib; FIGS. 11G, J
Protocol: To isolate neutrophil from bone marrow, bone marrow cells from 8 to 12-weeks-old BALB/c mice were harvested in sterile Hank's buffered salt solution (HBSS) without Ca^2+/Mg^2+ (14185052, Invitrogen), and laid on top of a 2-layer Percoll (17089102, GE Healthcare) gradient (72% and 63.5% in HBSS), followed by centrifugation at 1,200 g for 30 min at 25° C. Neutrophils enriched in the interface of 63.5%-72% fractions were confirmed to be of >95% purity by flow cytometry analysis. To isolate neutrophils from peripheral blood of mice, whole blood was collected via cardiac puncture (1 ml per animal) and suspended in HBSS (2 ml per animal) with 15 mM EDTA. After centrifugation (400 g, 10 min, 4° C.), white cells were resuspended in 2 ml HBSS with 2 mM EDTA. Then, the cells were centrifuged (1500 g, 30 min, room temperature) in a three-layer Percoll gradient (78%, 69%, and 52%) without braking. […] The purity of the isolated neutrophils was determined by May-Grunwald-Giemsa staining (40751ES02, Yea-sen). […]
The procedure of two-chamber migration assays was previously described (Zhuang et al., “Differential effects on lung and bone metastasis of breast cancer by Wnt signalling inhibitor DKK1,” Nat. Cell Biol. 19:1274-1285 (2017)). […] The migrated cells in the lower chamber were counted after 3 h. […]

liver cancer cells HUH7 = test: Mouse xenograft, liver tumor cells by spleen injection; assay type: in vivo; conditions: nude mice
Protocol: A series of mouse xenograft studies are conducted by injecting liver and pancreatic tumor cells into nude mice by spleen injection. Then the mice are treated by brensocatib, and the growth of the tumors in liver is observed.

Row | Compound | NET formation induced by CTSC (percentage area covered by NETs) (murine neutrophils [1]) | migration of murine neutrophils (murine neutrophils [2]) | neutrophil recruitment (neutrophils) | formation of liver surface nodules (liver cancer cells HUH7; spleen injection of HUH7, FIG. 12B) | tumor growth of liver cancer cells HUH7 in liver (liver cancer cells HUH7; spleen injection, FIG. 12A)
1 | CC(C)(C)C(=O)Oc1ccc(S(=O)(=O)Nc2ccccc2C(=O)NCC(=O)O)cc1 [Silvelestat] | blocks the ability of CTSC to induce NET formation | significantly reduced | – | – | –
2 | Cn1c(=O)oc2ccc(-c3ccc(C[C@@H](C#N)NC(=O)[C@@H]4CNCCCO4)cc3)cc21 [brensocatib, (2S)—N-{(1S)-1-cyano-2-[4-(3-methyl-2-oxo-2,3-dihydro-1,3-benzoxazol-5-yl)phenyl]ethyl}-1,4-oxazepane-2-carboxamide] | – | – | significantly reduced | suppresses | significantly inhibits tumor growth
